Results taken from patent publication US20190070165A1, “N-HYDROXYISOQUINOLINEDIONE INHIBITORS OF HBV REPLICATION” (Saint Louis University, priority 2016, published 2019).
“Also recorded” adds a separate entry of the source.

How the values were obtained:
[1] = tested on: HSV-1; test: HSV-1 replication inhibition assay in Vero cells; type: cell-based, herpes simplex virus 1; conditions: Human alphaherpesvirus 1, 24 h; 5 μM, Vero cells; read-out: HSV-1 suppression (log10 at 5 μM), class symbol
[2] = target: T1, HBV RNaseH (Hepatitis B virus genotype D subtype ayw, UniProt P03156); conditions: Table 3, compounds at 100, 60 and 20 μM; compounds 1-91 and 138-140 previously reported (Cai et al., 2014)
Target sequence in this assay (P03156 671-832): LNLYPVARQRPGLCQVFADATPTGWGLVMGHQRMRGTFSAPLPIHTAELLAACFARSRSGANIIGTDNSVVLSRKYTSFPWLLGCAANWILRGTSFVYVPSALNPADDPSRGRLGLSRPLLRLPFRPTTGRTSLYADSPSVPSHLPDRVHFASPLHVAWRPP

[3] = tested on: HBV replication; test: HBV replication inhibition assay in HepDES19 cells (strand-preferential q-PCR); type: cell-based, Hepatitis B virus
[4] = target: T1, HBV RNaseH; test: Molecular beacon RNaseH assay
Target sequence in this assay (P03156 671-832): as above

[5] = target: T1, HBV RNaseH; test: Detection of capsid-associated RNA:DNA heteroduplexes by Southern analysis; type: cell-based; design: expressed in transfected cells; host or cells: HepDES19 (HepG2 with a stably transfected HBV genotype D genome); conditions: HepDES19 cells, seven days; #89 at 4×EC50 (10.4 μM), #138 at 30 μM
Description: RNA:DNA heteroduplexes migrate as double-stranded products, but degradation of the RNA strand with exogenous RNase causes the DNAs to migrate as single-stranded species. To test for accumulation of RNA:DNA heteroduplexes, HepDES19 cells replicating HBV were treated with 4×EC50 (10.4 μM) of compound #89 and 30 μM compound #138 (negative control). HBV cores were harvested after seven days of compound treatment. Capsid-associated nucleic acids were purified and split into two pools; one pool was treated with RNaseA and the other pool was mock treated.
HepDES19 cells were plated in 100 mm dishes without tetracycline and incubated for 72 hours in the absence of tetracycline before addition of compound #89 at 4×EC50 (10.4 μM) and the negative control compound #138 at 30 μM; compound-containing media was replaced every three days. HBV nucleic acids were purified seven days after compound addition. HBV core particles were isolated by sedimentation through a sucrose cushion as described (Tavis et al., 1998). Cores were treated overnight with proteinase K (0.5 mg/mL) and 1.5% SDS at 37° C. Nucleic acids were purified by phenol-chloroform extraction and ethanol precipitation. The nucleic acids were split into two pools. One pool was treated with RNaseA (1.5 μg/μL) at 37° C. for 30 minutes and the other was mock-treated. […]
Target sequence in this assay (P03156 whole entry): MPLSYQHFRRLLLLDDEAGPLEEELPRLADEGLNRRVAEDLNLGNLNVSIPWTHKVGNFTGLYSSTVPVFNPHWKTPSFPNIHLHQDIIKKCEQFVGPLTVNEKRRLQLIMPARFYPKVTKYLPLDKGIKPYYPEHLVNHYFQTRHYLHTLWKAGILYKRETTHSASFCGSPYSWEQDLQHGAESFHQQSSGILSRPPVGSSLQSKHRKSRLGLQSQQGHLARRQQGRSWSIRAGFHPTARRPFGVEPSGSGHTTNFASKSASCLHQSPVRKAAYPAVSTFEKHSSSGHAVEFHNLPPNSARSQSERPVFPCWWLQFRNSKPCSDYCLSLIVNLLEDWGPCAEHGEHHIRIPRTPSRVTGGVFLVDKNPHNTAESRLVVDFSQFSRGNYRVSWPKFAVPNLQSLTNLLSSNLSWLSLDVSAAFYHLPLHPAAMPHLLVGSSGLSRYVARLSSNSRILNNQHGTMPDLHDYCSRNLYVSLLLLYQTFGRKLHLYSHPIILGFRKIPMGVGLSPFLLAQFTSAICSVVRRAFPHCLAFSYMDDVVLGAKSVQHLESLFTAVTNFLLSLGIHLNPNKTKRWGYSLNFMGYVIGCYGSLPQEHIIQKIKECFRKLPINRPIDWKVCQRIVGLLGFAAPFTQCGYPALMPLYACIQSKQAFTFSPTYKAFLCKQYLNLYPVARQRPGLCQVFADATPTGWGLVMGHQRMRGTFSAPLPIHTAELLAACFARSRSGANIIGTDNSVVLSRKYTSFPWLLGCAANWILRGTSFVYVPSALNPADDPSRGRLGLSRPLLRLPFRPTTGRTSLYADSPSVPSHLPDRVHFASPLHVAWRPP

O=C1c2ccccc2C(=O)N1O [Compound 138]
log reduction at 5 µM [1]: < 1 | Inhibition of HBV RNaseH, Oligonucleotide directed cleavage assay [2]: − (No inhibition detected at 100 μM) | HBV replication inhibition / activity ([3]; HepDES19 cells): does not inhibit HBV replication; also recorded: inactive | HBV replication inhibition (qualitative) ([3]; Table 3, qualitative screen at 20 μM): − (No inhibition detected at 20 μM) | inhibition in the molecular beacon assay ([4]; 2.1 μg purified HBV RNaseH): had no effect on the rate of substrate degradation | Inhibition of HBV RNaseH, Molecular Beacon cleavage assay ([4]; Table 3, 0 to 500 μM): − (No inhibition detected at 500 μM) | accumulation of RNA:DNA heteroduplexes [5]: unaltered by exogenous RNase treatment
